For orientation: EC50 means the concentration giving half of the maximal effect. Read a high EC50 as a need for much substance. By CC50 is commonly meant the concentration giving 50% cytotoxicity. One may read the IC50 as the point on the concentration scale where inhibition reaches its midpoint. Low values mean greater potency in that assay, high ones weaker potency in that assay.

Each structure is given as a SMILES string.

Experimental findings from article PMC5036131, “Fragment-based discovery of a new family of non-peptidic small-molecule cyclophilin inhibitors with potent antiviral activities” (Nature Communications, 2016) are described below.

One data set concerns HIV-IIIb. Description: Anti-HIV activity in MT4 cells. It is filed as cell-based, human immunodeficiency virus. To be noted: 5 days.
A further data set is described as follows: Chemical stability, 24 h. It is filed as physicochemical. The following applies: 37 °C, remaining.
The next data set relates to Caco-2 cells. Description: Caco-2 cell permeability. It is filed as in vitro ADME. To be noted: Caco-2 monolayers, 10 μM. How it is done: Permeability and efflux potential were determined using confluent (≥21 day) monolayers of Caco-2 cells grown on transwell filters. Compounds were added to donor wells at a target concentration of 10 μM and rates of appearance in receiver wells (containing 1% BSA to maintain sink conditions) were determined by liquid chromatography coupled to tandem mass spectrometry (LC-MS/MS).
For orientation: Caco-2 cells form a polarised layer with tight junctions and transporters.

Data set [1] in a line: Stability with hepatic microsomal fractions. It is filed as in vitro ADME. The following applies: human microsomes 0.5 mg protein/ml, NADPH, 3 μM. The procedure:
The compounds (3 μM) were incubated in duplicate for up to 1 h in the presence of human hepatic microsomal fractions (0.5 mg protein ml^−1 final) at 37 °C. The addition of cofactor solution (NADPH generating system) initiated the reaction and aliquots were removed at 0, 5, 15, 30, 45 and 60 min after the start. The concentrations of the compounds in each sample were determined using specific LC-MS/MS assays. The half-life for the disappearance of each was determined by fitting the concentration-time data with a monophasic exponential model. A control compound (verapamil) was run in parallel to test the enzymatic integrity of the microsomal fractions.

The target of data set [2] is T1, CYP2B6 (Homo sapiens, UniProt P20813).
T1 sequence (P20813 1-491): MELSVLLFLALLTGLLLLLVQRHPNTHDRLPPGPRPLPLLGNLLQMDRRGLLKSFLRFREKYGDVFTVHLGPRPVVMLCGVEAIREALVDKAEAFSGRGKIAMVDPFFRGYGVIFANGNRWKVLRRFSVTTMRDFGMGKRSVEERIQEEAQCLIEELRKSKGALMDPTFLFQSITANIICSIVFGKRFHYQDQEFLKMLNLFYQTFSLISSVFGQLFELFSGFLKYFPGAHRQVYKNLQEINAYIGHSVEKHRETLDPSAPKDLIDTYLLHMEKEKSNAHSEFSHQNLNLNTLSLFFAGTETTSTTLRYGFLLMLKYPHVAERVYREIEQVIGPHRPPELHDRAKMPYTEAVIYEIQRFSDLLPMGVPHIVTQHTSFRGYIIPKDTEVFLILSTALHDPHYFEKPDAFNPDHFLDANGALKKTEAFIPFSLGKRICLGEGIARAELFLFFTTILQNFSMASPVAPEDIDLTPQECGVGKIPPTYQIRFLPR
Description: Metabolism by recombinant human cytochrome P450, CYP2B6. Format: in vitro ADME. The following applies: recombinant enzyme. The procedure:
(§1) […] of compound was incubated with individual bacterially expressed recombinant human cytochromes P450 co-expressed with human NADPH cytochrome P450 reductase. […] Enzyme-selective positive control substrates were tested in parallel.

Data set [3] has as its target T2, CYP2C8 (Homo sapiens, UniProt P10632).
T2 sequence (P10632 1-490): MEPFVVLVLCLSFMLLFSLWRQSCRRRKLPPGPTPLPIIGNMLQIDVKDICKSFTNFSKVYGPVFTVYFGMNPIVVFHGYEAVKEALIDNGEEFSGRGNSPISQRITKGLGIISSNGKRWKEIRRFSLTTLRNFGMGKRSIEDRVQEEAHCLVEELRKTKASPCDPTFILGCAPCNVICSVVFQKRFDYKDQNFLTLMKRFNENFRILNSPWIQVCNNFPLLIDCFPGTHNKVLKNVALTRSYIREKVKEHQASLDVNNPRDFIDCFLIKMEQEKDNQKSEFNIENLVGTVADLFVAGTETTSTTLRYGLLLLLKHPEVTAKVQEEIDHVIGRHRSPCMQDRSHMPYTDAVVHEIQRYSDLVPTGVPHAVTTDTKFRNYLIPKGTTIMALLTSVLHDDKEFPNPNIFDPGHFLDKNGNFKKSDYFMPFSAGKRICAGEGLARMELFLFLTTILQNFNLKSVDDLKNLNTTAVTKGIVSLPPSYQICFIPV
Briefly: Metabolism by recombinant human cytochrome P450, CYP2C8. Format: in vitro ADME. To be noted: recombinant enzyme. How it is done:
as §1

Another data set addresses CYP2C9 (Homo sapiens, UniProt P11712). Description: Metabolism by recombinant human cytochrome P450, CYP2C9. Format: in vitro ADME. The following applies: recombinant enzyme. How it is done:
as §1

The next data set has as its target CYP2D6 (Homo sapiens, UniProt P10635). Briefly: Metabolism by recombinant human cytochrome P450, CYP2D6. Format: in vitro ADME. To be noted: recombinant enzyme. How it is done: as §1
In the next data set the test system is MT4 cells. Description: Cytotoxicity in uninfected MT4 cells. The following applies: read-out: MT4 cells CC50.
In data set [4] the target is T1, CYP2B6. Briefly: Cytochrome P450 enzyme inhibition assay, CYP2B6. The following applies: human hepatic microsomal fractions, up to 25 μM. More on the design: incubated with human hepatic microsomal fractions and NADPH; from tissue; host or cells: human hepatic microsomal fractions. It is filed as in vitro ADME. How it is done:
(§2) Up to 25 μM of compounds 29 and 30 was incubated with human hepatic microsomal fractions and NADPH in the presence of individual probe substrates. All assays were designed so that conditions were linear with respect to time and protein concentration. Substrates were present at concentrations equal to or lower than their respective Km values. Enzyme selective products were determined by fluorometry (ethoxyresorufin O-deethylase) or by specific LC-MS/MS assays. Relative enzyme activities were determined by comparison with those assayed with DMSO vehicle instead of inhibitor. IC50 values were calculated by nonlinear curve fitting using a sigmoidal model. Positive control inhibitors for each enzyme were tested in parallel.

Data set [5] has as its target T2, CYP2C8. Description: Cytochrome P450 enzyme inhibition assay, CYP2C8. It is filed as in vitro ADME. More on the design: incubated with human hepatic microsomal fractions and NADPH; from tissue; host or cells: human hepatic microsomal fractions. To be noted: human hepatic microsomal fractions, up to 25 μM. How it is done:
as §2

CYP2C9, sequence (P11712 whole entry): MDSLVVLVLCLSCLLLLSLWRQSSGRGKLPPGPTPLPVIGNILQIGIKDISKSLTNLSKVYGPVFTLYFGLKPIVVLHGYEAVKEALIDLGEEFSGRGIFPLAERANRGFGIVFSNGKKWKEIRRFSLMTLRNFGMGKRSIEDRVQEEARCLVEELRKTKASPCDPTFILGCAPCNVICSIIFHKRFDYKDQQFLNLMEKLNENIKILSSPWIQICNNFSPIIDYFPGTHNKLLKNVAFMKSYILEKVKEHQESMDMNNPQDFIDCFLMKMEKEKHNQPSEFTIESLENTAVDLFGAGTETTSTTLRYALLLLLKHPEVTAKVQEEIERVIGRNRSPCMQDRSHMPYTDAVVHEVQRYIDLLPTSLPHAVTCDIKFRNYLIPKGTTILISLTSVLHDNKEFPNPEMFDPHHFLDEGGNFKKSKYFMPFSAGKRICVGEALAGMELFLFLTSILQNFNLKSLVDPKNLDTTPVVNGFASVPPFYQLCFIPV
CYP2D6, sequence (P10635 whole entry): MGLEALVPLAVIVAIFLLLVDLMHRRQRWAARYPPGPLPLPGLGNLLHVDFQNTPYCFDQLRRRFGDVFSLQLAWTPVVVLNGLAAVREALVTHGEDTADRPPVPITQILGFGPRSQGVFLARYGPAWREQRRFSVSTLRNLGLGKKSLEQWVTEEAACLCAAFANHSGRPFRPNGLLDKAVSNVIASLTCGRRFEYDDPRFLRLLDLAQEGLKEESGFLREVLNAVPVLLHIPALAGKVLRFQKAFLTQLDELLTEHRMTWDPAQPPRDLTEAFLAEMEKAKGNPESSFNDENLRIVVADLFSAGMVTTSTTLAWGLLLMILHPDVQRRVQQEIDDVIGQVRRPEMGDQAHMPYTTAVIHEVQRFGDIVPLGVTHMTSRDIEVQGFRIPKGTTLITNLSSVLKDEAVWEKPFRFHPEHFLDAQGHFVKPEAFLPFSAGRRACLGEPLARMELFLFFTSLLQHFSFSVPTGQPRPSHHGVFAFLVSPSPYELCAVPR

Regarding `CSCCC(NC(=O)NCc1ccc(N)cc1)C(=O)N1CCCC1c1ccccc1SC.O=C(O)C(F)(F)F` (stereo not drawn) [Compound 30], the EC50 in the data set on HIV-IIIb worked out at 15 ± 1.2 µM. The “24-hour stability HCl (pH 1.0)” value in the data set “Chemical stability, 24 h” is 92%. For the same compound, the “24-hour stability PBS (pH 7.4)” value in the data set “Chemical stability, 24 h” was 100%; in the data set “Chemical stability, 24 h” (listed as compound 30), “not degraded”. Moreover, the “Apparent permeability Forward” value is 19.5 ×10⁻⁶ cm/s in the data set with Caco-2 cells and “high” in the data set with Caco-2 cells (listed as compound 30). The “Apparent permeability Reverse” value in the data set on Caco-2 cells (reverse) was 39.7 ×10⁻⁶ cm/s. Besides, in [1], the “Hepatic microsomal stability, T1/2” value came out at 35.5 min. Besides, the “Rate of metabolism by human cytochrome P450 CYP2B6” value at CYP2B6 [2] is under 0.12 pmol/pmol P450/min; at CYP2B6 [2] (listed as compound 30) it was “Neither compound 29 nor compound 30 was metabolized”. Also, on CYP2C8 [3], the “Rate of metabolism by human cytochrome P450 CYP2C8” value is 0.56 pmol/pmol P450/min. For the same compound, the “Rate of metabolism by human cytochrome P450 CYP2C9” value on CYP2C9 was 0.49 pmol/pmol P450/min. On CYP2D6, the “Rate of metabolism by human cytochrome P450 CYD2D6” value came out at 1.24 pmol/pmol P450/min. Also, in the data set on MT4 cells, the cytotoxic concentration (CC50) was over 53 µM. In addition, the values for the IC50 against CYP2B6 [4] and against CYP2C8 [5] were over 25 µM and 9.4 µM, respectively. Also, the “Inhibition of cytochrome P450 activity, IC50 CYP2B6” value on CYP2B6 [4] was “Neither compound 29 nor compound 30 significantly inhibited”. The “Inhibition of cytochrome P450 activity, IC50 CYP2C8” value at CYP2C8 [5] is on record as “moderate inhibitors”.
